Measured values published in patent US11125741B2, “Compositions and methods for the detection of zinc” (Northwestern University, priority 2012, dated 2021).

What was measured:
[1] = test system: mouse eggs; experiment: Time-lapse imaging of zinc sparks and calcium transients in parthenogenetically activated eggs; format: cell-based
Method: Time-lapse imaging of parthenogenetically activated eggs. Eggs were first incubated in 10 μM Calcium Green-1 AM (Invitrogen) and 0.04% (w/v) Pluronic F-127 (Invitrogen) for either 30 min (mouse) or 60 min (non-human primate) at 37° C. Mouse eggs were washed in calcium-free KSOM (Millipore) and transferred to a 50 μl drop containing 10 mM SrCl2 (Sigma-Aldrich) and 50 μM FluoZin-3 (Invitrogen) on a glass-bottom dish (Bioptechs Inc.). Non-human primate eggs were transferred to one end of a long and shallow drop (20 μl) of calcium-free KSOM (Millipore) containing 50 μM FluoZin-3 (Invitrogen) on a glass-bottom dish (Bioptechs Inc.), covered with oil for embryo culture (Irvine Scientific, Santa Ana, Calif.). Ionomycin was perfused in at the opposite end to a final concentration of 20 μM. In both cases, image acquisition began immediately and occurred every 4 s for a total of 1-3 hours (mouse) or 15 min (non-human primate), unless noted otherwise. All images were acquired on a TCS SP5 confocal microscope (Leica Microsystems) equipped with a stage top incubator (Tokai Hit), 20× objective, and an Ar (488 nm) laser line.
Additional experiments were consistent with this determination. […] Second, zinc sparks were absent in eggs treated with the membrane permeable acetoxymethyl ester (AM) derivative of 1,2-bis(o-aminophenoxy)ethane-N,N,N′,N′-tetraacetic acid (BAPTA).
The polarization of the zinc-enriched vesicles mirrors that of the cortical granules (CG), which are exocytic vesicles that participate in the cortical reaction, which involves the hardening of the zona pellucida to establish a block to polyspermy at fertilization (Ducibella. (1996) Hum Reprod Update 2, 29-42.; herein incorporated by reference in its entirety). […] In most cases, subsequent sparks were inhibited (SEE FIG. 9). Experiments conducted during development of embodiments of the present invention indicate that zinc-containing vesicles are pre-fused with the egg membrane, allowing the first spark to occur even in the presence of CytoB. This type of phenomenon has been described for cortical granules in the sea urchin egg, where one subset of CGs are in a hemifused state prior to activation21.

[2] = Gee et al. 2002; cited from earlier work
[3] = test system: mouse eggs; experiment: TPEN treatment and spindle imaging of mouse eggs; format: cell-based; conditions: 10 μM, 8 hrs of culture
Method: FIGS. 12a-e show perturbation of intracellular zinc availability causes activation of the egg. Following 8 hours of culture, control eggs maintain a metaphase II spindle (a, sp) with individual chromosomes aligned at the metaphase plate (b). In contrast, eggs exposed to 10 μM TPEN for the same period artificially activate as indicated by the formation of an intact pronucleus (c, pn) with decondensed chromatin surrounding a nucleolus (d).
TPEN treatment and spindle imaging of mouse eggs. Superovulated eggs were collected and transferred to KSOM medium (Millipore) with or without 10 μM TPEN and cultured up to 8 hrs at 37° C. in an atmosphere of 5% CO2 in air. […] Eggs were fixed and permeabilized for 30 min at 37° C. in a solution containing 2% formaldehyde, 2% Triton X-100, 100 mM PIPES, 5 mM MgCl2, and 2.4 mM EGTA. Eggs were then washed and blocked for 1-3 hrs in 1× PBS containing 0.1 M glycine, 3 mg/mL BSA, 0.01% Tween-20, and 0.01% sodium azide followed by incubation with […] (1:100, Sigma) in blocking buffer for 1 hr at 37° C. Eggs were washed again in blocking buffer, incubated in Alexa Fluor 488-conjugated goat anti-mouse IgG (Invitrogen) and rhodamine-phalloidin conjugate (Invitrogen) at 37° C. for 1 hr, washed three additional times, and mounted on microscopy slides with coverslips in Vectashield with DAPI. […]

[4] = pM reflects the log of the free ion concentration; cited from earlier work
[5] = test system: activated mouse eggs; conditions: 10 μM, 10 min at 1.5 hpa
[6] = treated prior to strontium chloride activation

Compound: CC(=O)OCOC(=O)CN(CC(=O)OCOC(C)=O)c1ccccc1OCCOc1ccccc1N(CC(=O)OCOC(C)=O)CC(=O)OCOC(C)=O [BAPTA AM]
- parthenogenetic activation on long-term exposure ([1]; 10 μM): did not parthenogenetically activate eggs
- calcium transients and zinc sparks ([1]; extended culture in strontium chloride): both calcium transients and zinc sparks were absent
- second polar body extrusion and pronucleus formation ([1]; strontium chloride activation): did not extrude a second polar body or form a pronucleus

Compound: C=C1[C@@H](C)[C@H]2[C@H](Cc3ccccc3)NC(=O)[C@]23OC(=O)/C=C/[C@H](O)CCC[C@@H](C)C/C=C/[C@H]3[C@@H]1O [CytoB, cytochalasin B]
- calcium oscillations upon activation [1, 6]: normal calcium oscillations
- zinc sparks upon activation [1, 6]: only exhibit a single zinc spark

Compound: COc1ccc(N(CC(=O)O)CC(=O)O)c(OCCOc2cc(-c3c4cc(F)c(=O)cc-4oc4cc(O)c(F)cc34)ccc2NCC(=O)O)c1 [FluoZin-3]
- fluorescence turn-on for Zn [2]: 80 fold

Compound: c1ccc(CN(CCN(Cc2ccccn2)Cc2ccccn2)Cc2ccccn2)nc1 [TPEN]
- egg activation (pronucleus-like structure) [3]: had a pronucleus-like structure at significantly higher rates
- zinc sparks in zinc-insufficient eggs ([1]; oocytes treated during in vitro maturation, then activated): did not undergo zinc sparks

Compound: CCOC(=O)COc1cc(NS(=O)(=O)c2ccc(C)cc2)c2nc(C)ccc2c1 [zinquin ethyl ester]
- pM value [4]: 9.3

Compound: carbonic anhydrase
- pM value [4]: 12.4

Compound: zinc pyrithione [ZnPT]
- eggs lacking a pronucleus with aligned chromosomes [5]: eighty-four
- eggs that formed a pronucleus ([5]; scored 6-8 hpa): seventeen
